In brackets after ≈: the same amount, converted by molar mass. Blank lines part the entries; values can stand above or below the compound they belong to.
Experiments:
P2X purinoceptor 7 = P2X purinoceptor 7 (Homo sapiens, UniProt Q99572); assay: Antagonist activity at human P2X7
Cytochrome P450 2D6 = Cytochrome P450 2D6 (Homo sapiens, UniProt P10635); assay: Inhibition of CYP2D6 in human liver microsomes using dextromethorphan as substrate after 15 mins by LC-MS/MS analysis; assay type: ADME
Cytochrome P450 2C19 = Cytochrome P450 2C19 (Homo sapiens, UniProt P33261); assay: Inhibition of CYP2C19 in human liver microsomes using S-mephenytoin as substrate after 15 mins by LC-MS/MS analysis; assay type: ADME
[1] = Protein binding in mouse plasma at 1 uM after 6 hrs by equilibrium dialysis method; assay type: ADME, cell-free; details: read-out: PPB (converted)
[2] = Solubility of compound in phosphate buffer at pH 2 after 3 days; assay type: physicochemical
[3] = Protein binding in human plasma at 1 uM after 6 hrs by equilibrium dialysis method; assay type: ADME, cell-free; details: read-out: PPB (converted)
Cytochrome P450 3A4 = Cytochrome P450 3A4 (Homo sapiens, UniProt P08684); assay: Inhibition of CYP3A4 in human liver microsomes using midazolam as substrate after 15 mins by LC-MS/MS analysis; assay type: ADME
Cytochrome P450 2C8 = target: T1, Cytochrome P450 2C8 (Homo sapiens, UniProt P10632); assay: Inhibition of CYP2C8 in human liver microsomes using paclitaxel as substrate after 15 mins by LC-MS/MS analysis; assay type: ADME
T1 sequence (P10632 whole entry): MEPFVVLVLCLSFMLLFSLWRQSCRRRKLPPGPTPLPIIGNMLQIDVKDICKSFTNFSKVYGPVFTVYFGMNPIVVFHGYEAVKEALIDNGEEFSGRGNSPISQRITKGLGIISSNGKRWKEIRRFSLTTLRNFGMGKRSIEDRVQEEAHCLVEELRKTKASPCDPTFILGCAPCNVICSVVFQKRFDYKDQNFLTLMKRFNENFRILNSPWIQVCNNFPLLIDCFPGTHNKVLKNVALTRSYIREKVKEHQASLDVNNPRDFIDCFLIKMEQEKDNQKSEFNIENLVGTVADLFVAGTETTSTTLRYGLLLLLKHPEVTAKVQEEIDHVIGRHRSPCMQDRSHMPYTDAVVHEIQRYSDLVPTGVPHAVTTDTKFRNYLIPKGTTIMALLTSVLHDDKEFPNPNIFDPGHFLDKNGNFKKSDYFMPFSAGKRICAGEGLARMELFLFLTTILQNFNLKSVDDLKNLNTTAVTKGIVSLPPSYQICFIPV

Cytochrome P450 1A2 = target: T2, Cytochrome P450 1A2 (Homo sapiens, UniProt P05177); assay: Inhibition of CYP1A2 in human liver microsomes using phenacetin as substrate after 15 mins by LC-MS/MS analysis; assay type: ADME
T2 sequence (P05177 whole entry): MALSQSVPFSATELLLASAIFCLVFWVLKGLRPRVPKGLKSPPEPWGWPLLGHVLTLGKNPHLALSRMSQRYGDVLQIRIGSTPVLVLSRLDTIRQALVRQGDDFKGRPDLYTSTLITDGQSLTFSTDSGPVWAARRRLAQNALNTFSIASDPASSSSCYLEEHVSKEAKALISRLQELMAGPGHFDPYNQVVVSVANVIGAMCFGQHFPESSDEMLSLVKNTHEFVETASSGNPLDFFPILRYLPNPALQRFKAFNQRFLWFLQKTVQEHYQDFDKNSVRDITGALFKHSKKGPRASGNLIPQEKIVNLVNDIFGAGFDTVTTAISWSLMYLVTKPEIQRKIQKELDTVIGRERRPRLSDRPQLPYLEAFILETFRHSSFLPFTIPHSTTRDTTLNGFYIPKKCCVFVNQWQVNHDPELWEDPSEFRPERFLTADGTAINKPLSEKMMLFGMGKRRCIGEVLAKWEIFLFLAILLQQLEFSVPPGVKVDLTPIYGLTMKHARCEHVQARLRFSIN

[4] = Protein binding in rat plasma at 1 uM after 6 hrs by equilibrium dialysis method; assay type: ADME, cell-free; details: read-out: PPB (converted)
[5] = target: Voltage-gated inwardly rectifying potassium channel KCNH2 (Homo sapiens, UniProt Q12809); assay: Inhibition of [3H]-dofetilide binding to human ERG expressed in HEK293 cells; assay type: cell-based
Cytochrome P450 2C9 = Cytochrome P450 2C9 (Homo sapiens, UniProt P11712); assay: Inhibition of CYP2C9 in human liver microsomes using diclofenac as substrate after 15 mins by LC-MS/MS analysis; assay type: ADME
[6] = Solubility of compound in phosphate buffer at pH 7 after 3 days; assay type: physicochemical
Rattus norvegicus = assay: Drug level in Sprague-Dawley rat treated with(R)-(2-Chloro-3-(trifluoromethyl)phenyl)(4-methyl-1-(pyrimidin-2-yl)-1,4,6,7-tetrahydro-5H-[1,2,3]triazolo[4,5-c]pyridin-5-yl)methanone at 1 mg/kg, iv or 5 mg/kg, po by LC-MS/MS analysis; assay type: ADME, organism-based; details: in vivo

Voltage-gated inwardly rectifying potassium channel KCNH2, sequence (Q12809 whole entry): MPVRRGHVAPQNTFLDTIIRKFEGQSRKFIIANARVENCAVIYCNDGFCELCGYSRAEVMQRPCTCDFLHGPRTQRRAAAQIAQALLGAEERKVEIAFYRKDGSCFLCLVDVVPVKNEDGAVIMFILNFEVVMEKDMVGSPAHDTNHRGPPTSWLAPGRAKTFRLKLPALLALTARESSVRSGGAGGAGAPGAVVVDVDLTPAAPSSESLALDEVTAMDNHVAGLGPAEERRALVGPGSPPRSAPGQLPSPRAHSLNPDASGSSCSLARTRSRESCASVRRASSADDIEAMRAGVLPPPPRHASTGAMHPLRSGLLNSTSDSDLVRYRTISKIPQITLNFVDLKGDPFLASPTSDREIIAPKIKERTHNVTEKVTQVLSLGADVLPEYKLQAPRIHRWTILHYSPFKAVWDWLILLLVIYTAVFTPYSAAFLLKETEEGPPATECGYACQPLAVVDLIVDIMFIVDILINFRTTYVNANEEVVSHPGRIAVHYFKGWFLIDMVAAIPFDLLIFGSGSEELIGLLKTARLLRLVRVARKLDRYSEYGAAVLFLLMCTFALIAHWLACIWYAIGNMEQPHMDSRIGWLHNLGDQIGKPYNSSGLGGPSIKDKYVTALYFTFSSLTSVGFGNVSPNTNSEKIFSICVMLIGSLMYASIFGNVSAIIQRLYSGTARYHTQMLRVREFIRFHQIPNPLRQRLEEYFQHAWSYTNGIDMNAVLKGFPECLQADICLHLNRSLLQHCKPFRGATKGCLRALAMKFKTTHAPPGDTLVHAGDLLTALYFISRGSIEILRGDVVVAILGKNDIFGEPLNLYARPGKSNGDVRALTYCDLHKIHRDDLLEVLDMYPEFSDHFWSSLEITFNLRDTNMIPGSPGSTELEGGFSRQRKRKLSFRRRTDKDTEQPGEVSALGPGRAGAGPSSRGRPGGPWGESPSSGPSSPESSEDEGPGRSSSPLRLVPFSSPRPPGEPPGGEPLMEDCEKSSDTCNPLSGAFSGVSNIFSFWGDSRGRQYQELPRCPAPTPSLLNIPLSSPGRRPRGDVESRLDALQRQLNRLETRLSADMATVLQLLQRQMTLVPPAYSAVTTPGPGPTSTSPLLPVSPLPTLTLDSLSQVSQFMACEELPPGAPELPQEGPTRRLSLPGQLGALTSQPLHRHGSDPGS
P2X purinoceptor 7, sequence (Q99572 whole entry): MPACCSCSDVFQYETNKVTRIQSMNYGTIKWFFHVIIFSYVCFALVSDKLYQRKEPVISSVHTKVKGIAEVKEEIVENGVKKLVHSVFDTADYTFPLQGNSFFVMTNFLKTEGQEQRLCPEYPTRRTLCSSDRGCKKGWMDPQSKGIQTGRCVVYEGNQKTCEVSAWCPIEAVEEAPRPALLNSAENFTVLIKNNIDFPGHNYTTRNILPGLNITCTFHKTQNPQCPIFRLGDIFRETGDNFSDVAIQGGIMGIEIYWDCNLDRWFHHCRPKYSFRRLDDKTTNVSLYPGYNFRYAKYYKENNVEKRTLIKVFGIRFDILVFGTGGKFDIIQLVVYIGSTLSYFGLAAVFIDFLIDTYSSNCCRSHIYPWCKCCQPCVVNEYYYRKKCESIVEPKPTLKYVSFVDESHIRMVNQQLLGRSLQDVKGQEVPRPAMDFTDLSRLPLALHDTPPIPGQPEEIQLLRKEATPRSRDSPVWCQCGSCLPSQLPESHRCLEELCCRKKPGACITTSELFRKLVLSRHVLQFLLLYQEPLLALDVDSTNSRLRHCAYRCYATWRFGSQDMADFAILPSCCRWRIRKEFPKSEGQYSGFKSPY
Cytochrome P450 2C19, sequence (P33261 whole entry): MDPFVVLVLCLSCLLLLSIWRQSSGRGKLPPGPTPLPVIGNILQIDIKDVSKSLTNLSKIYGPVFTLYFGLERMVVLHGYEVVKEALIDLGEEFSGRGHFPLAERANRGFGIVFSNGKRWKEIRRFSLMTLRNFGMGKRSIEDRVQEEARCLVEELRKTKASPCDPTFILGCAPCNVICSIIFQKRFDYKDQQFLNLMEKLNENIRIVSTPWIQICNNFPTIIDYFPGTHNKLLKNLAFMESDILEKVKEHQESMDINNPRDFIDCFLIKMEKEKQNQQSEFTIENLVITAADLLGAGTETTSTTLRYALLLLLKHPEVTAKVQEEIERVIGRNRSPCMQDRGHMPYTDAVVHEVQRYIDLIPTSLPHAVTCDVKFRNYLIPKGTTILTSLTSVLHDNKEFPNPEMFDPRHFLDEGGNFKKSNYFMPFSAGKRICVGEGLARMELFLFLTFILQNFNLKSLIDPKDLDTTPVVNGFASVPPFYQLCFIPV
Cytochrome P450 2D6, sequence (P10635 whole entry): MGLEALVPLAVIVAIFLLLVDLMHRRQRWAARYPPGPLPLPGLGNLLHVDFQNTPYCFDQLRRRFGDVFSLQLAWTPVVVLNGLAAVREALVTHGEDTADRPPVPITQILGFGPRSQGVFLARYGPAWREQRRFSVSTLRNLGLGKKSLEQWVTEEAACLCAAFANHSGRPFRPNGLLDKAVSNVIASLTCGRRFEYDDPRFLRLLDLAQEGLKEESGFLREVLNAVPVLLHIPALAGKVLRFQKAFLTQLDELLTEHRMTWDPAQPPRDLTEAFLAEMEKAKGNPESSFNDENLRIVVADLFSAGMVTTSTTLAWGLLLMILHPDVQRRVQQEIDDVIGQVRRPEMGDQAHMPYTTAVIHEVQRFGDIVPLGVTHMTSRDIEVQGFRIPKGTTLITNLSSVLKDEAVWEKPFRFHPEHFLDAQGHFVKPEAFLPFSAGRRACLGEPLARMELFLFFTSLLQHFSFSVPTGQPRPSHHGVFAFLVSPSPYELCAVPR
Cytochrome P450 2C9, sequence (P11712 whole entry): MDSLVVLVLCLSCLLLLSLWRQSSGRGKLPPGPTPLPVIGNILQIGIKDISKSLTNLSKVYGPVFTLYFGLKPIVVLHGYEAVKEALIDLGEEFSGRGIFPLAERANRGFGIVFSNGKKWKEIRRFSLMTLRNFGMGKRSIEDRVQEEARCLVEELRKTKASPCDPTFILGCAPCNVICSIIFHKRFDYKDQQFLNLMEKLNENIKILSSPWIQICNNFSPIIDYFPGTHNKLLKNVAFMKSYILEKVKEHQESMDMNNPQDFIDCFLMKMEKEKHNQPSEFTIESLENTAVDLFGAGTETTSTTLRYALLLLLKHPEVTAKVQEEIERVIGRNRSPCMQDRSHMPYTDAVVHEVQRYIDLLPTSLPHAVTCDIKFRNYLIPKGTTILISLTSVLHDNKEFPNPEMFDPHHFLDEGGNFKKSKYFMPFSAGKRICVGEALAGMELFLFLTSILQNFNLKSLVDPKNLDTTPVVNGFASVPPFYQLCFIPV
Cytochrome P450 3A4, sequence (P08684 whole entry): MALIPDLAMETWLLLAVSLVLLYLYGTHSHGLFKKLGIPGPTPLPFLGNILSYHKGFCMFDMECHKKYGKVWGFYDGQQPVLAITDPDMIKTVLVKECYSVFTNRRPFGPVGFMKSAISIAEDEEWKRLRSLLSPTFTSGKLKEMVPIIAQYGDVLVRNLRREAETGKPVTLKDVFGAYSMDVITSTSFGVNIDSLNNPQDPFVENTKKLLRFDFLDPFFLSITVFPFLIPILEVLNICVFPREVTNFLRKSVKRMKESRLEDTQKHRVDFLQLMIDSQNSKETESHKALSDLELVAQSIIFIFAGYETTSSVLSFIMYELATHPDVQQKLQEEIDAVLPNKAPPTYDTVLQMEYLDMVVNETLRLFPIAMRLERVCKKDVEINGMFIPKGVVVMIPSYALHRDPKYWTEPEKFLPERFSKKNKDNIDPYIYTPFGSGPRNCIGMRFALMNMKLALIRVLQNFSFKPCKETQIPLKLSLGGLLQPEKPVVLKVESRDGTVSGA

IC50 (P2X purinoceptor 7): 10 to 13 nM
SMILES: O=C(NCC12CC3CC(CC(C3)C1)C2)c1cc(CCCNCCCO)ccc1Cl [AZD9056]

IC50 (Cytochrome P450 2D6): > 10000 nM
IC50 (Cytochrome P450 2C19): 2100 nM
fraction unbound at 6 h, 1 µM [1]: 0.042
solubility at 72 h [2]: 4.8 µM (≈ 2.11 µg/mL)
fraction unbound at 6 h, 1 µM [3]: 0.024
IC50 (Cytochrome P450 3A4): > 10000 nM
IC50 (Cytochrome P450 2C8): > 10000 nM
IC50 (Cytochrome P450 1A2): > 10000 nM
fraction unbound at 6 h, 1 µM [4]: 0.052
IC50 (Cytochrome P450 2C9): 2800 nM
solubility at 72 h [6]: 2.1 µM (≈ 0.924 µg/mL)
SMILES: C[C@@H]1c2nnn(-c3cc(F)ccn3)c2CCN1C(=O)c1cccc(C(F)(F)F)c1Cl
IC50 [5]: > 10000 nM

Drug metabolism (Rattus norvegicus): Metabolite_Detected
SMILES: C[C@@H]1c2nn[nH]c2CCN1C(=O)c1cccc(C(F)(F)F)c1Cl
